Data reported in patent US20190125734A1, “COMPOSITION FOR TREATING OR PREVENTING ATOPIC DERMATITIS” (NANOEGG Research Laboratories, Inc., priority 2016, published 2019).
Entries after “also recorded” stand apart in the source; their conditions may differ.

Experiments:
[1] = Toxicity observed during application, Example 5; type: in vivo, mouse; conditions: topical application to NC/Nga mice, 12 mM week 1
Protocol: Mice (NC/Nga, 10 week old) were applied with a mite antigen (Biostir AD) twice a week for 4 weeks to prepare mice with atopic dermatitis outbreak as in Example 1. Induction with mite antigens (twice a week) and application of a test formulation (5 times a week) were simultaneously performed for 3 weeks to analyze the effect of suppressing induction of atopic dermatitis. A test formulation was used at 12 mM in week 1, and at 24 mM in week 2 and thereafter. […] A non treatment group (no induction, no application of test formulation) and solvent applied group (with induction, application of purified water) were prepared as controls. Scoring was performed in the same manner as Example 1.

[2] = test system: mice with atopic dermatitis outbreak (NC/Nga, mite antigen Biostir AD); test: Atopic dermatitis score with simultaneous mite antigen induction and test formulation application, Example 5; type: in vivo, mouse; conditions: topical 5 times a week for 3 weeks, 12 mM week 1, 24 mM week 2 and thereafter (decamethonium bromide 12 mM, twice a week in last week), induction twice a week
Protocol: Induction with mite antigens (twice a week) and application of a test formulation (5 times a week) were simultaneously performed for 3 weeks to analyze the effect of suppressing induction of atopic dermatitis. A test formulation was used at 12 mM in week 1, and at 24 mM in week 2 and thereafter. […] A non treatment group (no induction, no application of test formulation) and solvent applied group (with induction, application of purified water) were prepared as controls.
(1) Antagonist and agonist: hexamethonium bromide, suxamethonium chloride (Maruishi Pharmaceutical), and decamethonium bromide (Tokyo Chemical Industry) were used to compare an antagonist and agonist of a nicotinic acetylcholine receptor. […] (3) Number of tertiary amino groups: Hexamethonium bromide has two tertiary amino groups within the molecule. This was compared to hexyltrimethylammonium bromide (Wako Pure Chemical; hereinafter, referred to as Hexyl-TAB) having one tertiary amino group within the molecule and an alkyl group with 6 carbons. (4) Carbon chain length: Hexamethonium bromide was compared with decamethonium bromide (number of carbons 10) which has a carbon chain length that is longer than hexamethonium bromide (number of carbons 6), and compared with tetramethylammonium bromide (Wako Pure Chemical; number of carbons: 1; hereinafter, referred to as TAB), hexyltrimethylammonium bromide (number of carbons: 6; hereinafter, referred to as Hexyl-TAB), and cetyltrimethylammonium bromide (Wako Pure Chemical; number of carbons: 16; hereinafter, referred to as Cetyl-TAB), which have one tertiary amino group within the molecule and a different carbon chain length in the alkyl group.

[3] = test system: atopic dermatitis model mice (NC/Nga, mite antigen Biostir AD); test: Evaluation of drug efficacy after inducing dermatitis (AD score, pictures of the back), Example 1; type: in vivo, mouse; conditions: female NC/Nga mice, topical 12 mM, days 3 and 7
Protocol: 10 week old NC/Nga mice (Charles River Laboratories Japan) were used as atopic dermatitis model animals. A mite (Dermatophagoides farina) antigen, i.e., Biostir AD (Wako Pure Chemical), was used to induce dermatitis. Model mice were prepared by the following procedure.
1. The back of mice was shaved. A hair removal cream was used only for the first time. 2. To destroy the skin barrier, 150 μL of 4% SDS was applied and dried for 2 to 3 hours (this step was omitted for the first time). 3. To stimulate immunity, 100 mg of Biostir AD was applied to the back and the left and right auricles of the mice. 4. These steps were performed twice a week.
Scoring was performed according to the method described in the package insert of Biostir AD. Four endpoints were each evaluated as 0 to 3 points. The total score for the endpoints was used as the AD score. The following Table 1 summarizes the scores for each endpoint.
Acridinium bromide (Wako Pure Chemical) and scopolamine hydrobromide trihydrate (Tokyo Chemical Industry) were used as an inhibitor of a muscarinic acetylcholine receptor. Hexamethonium bromide (sigma-aldrich) and dextromethorphan hydrobromide monohydrate (Wako Pure Chemical) were used as an inhibitor of a nicotinic acetylcholine receptor. Dimethyl sulfoxide (DMSO, Wako Pure Chemical), saline (Otsuka Pharmaceutical), and purified water were used as solvents. […]

[4] = test system: atopic dermatitis model mice (NC/Nga, mite antigen Biostir AD); test: Therapeutic effect from oral administration, dermatitis scores, Example 8; type: in vivo, mouse; conditions: 150 μL of 60 mM once a day, 5 times a week, total 10 times, day 10
Protocol: 10 week old NC/Nga mice (Charles River Laboratories Japan) were used as atopic dermatitis model animals. A mite antigen (Biostir AD, Wako Pure Chemical) was used to induce dermatitis. Model mice were prepared and scored according to the method described in the package insert of Biostir AD (same as Example 1).
As an inhibitor of a nicotinic acetylcholine receptor, hexamethonium bromide (hereinafter, hexamethonium; sigma-aldrich) was used. The inhibitor was dissolved in purified water and prepared to have a final concentration of 60 mM. Purified water (DW) was used as a negative control.
150 μL of a test formulation was orally administered to atopic dermatitis induced mice once a day, 5 times a week, for a total of 10 times. Dermatitis scores were evaluated after 0 and 10 days from administration. Mean change from day 0 was compared. Atopic dermatitis was induced with mite antigens only on Mondays every week to maintain the symptom.

[5] = test system: atopic dermatitis model mice (NC/Nga, mite antigen Biostir AD); test: Drug efficacy with dermatitis induction in parallel (AD score, pictures of the back), Example 3; type: in vivo, mouse; conditions: male NC/Nga mice, topical 12 mM, days 3, 7, 11
Protocol: Atopic dermatitis model mice were prepared and scored in the same manner as Example 1. The same test formulations as those in Example 1 were used.
Male NC/Nga mice (Charles River Laboratories Japan) induced to have atopic dermatitis were used. A test formulation was applied to the back once a day, 5 days a week (Monday to Friday), for a total of 10 times. 100 μL of the test formulation was applied to the back, and 25 μL was applied to each of the left and right auricles. The back was shaved prior to administration on Monday and Thursday to evaluate dermatitis scores. Atopic dermatitis was then induced only on Mondays every week to maintain dermatitis. Mice were euthanized after 11 days from the initial administration, and then the skin tissue was sampled.

[6] = test system: skin of atopic dermatitis patients; test: Replica method for goose bump-like skin symptoms, Example 6; type: in vivo, human; conditions: 12 mM applied to back part of the neck of atopic dermatitis patients; 5 to 10 minutes after application vs before
Protocol: Hexamethonium (12 mM) was applied to (back part of) the neck of atopic dermatitis patients to obtain replica images of skin before application and after 5 to 10 minutes from application. The replica images were collected by applying silicon resin (SILFLO) so as to cover the skin with outbreak of atopic dermatitis and peeling of the cured silicon from the skin after 5 minutes. Light was irradiated onto the collected replicas from one direction to compare and examine, and take pictures of, the unevenness of the skin surface.

mast cells = test: Activity and migration of mast cells (toluidine blue stain of back skin), Example 2; type: in vivo, mouse; conditions: severe area; saline group about 40%
Text: Solifenacin succinate (Tokyo Chemical Industry), acridinium bromide (Wako Pure Chemical) and scopolamine hydrobromide trihydrate (Tokyo Chemical Industry) were used as an inhibitor of a muscarinic acetylcholine receptor. Tubocurarine chloride pentahydrate (Tokyo Chemical Industry), gallamintriethiodide (sigma-aldrich), hexamethonium bromide (sigma-aldrich), dextromethorphan hydrobromide monohydrate (Wako Pure Chemical), and α-bungarotoxin (alomone labs) were used as an inhibitor of a nicotinic acetylcholine receptor. Dimethyl sulfoxide (DMSO, Wako Pure Chemical) saline (Otsuka Pharmaceutical), and purified water were used as solvents.
The back skin of sampled atopic dermatitis model mice was immobilized with neutral formalin and embedded in paraffin. A 4 μm thick tissue segment was prepared therefrom, and mast cells were stained with toluidine blue stain. The stained tissue segment was captured with a microscope. […] The areas of only collagen fiber sites in the tissue segment images were measured (removing areas of the epidermal layer, mast cells, and muscle cells) and compared the mast cell count per unit area to the degree of degranulation.

Row | Compound | atopic dermatitis score (mean change) relative to solvent administered group (DW) [2] | also measured
1 | C[N+](C)(C)CCCCCCCCCC[N+](C)(C)C [decamethonium bromide, Decamethonium Bromide] | reduce atopic dermatitis scores | toxicity [1]: strong toxicity; atopic dermatitis score (mean change) relative to solvent administered group (DW) ([2]; listed as Decamethonium bromide): action to exacerbate atopic dermatitis was confirmed
2 | CCCCCCCCCCCCCCCC[N+](C)(C)C.[Br-] [Cetyl-TAB, Cetyltrimethylammonium bromide] | exacerbating action | 
3 | C[N+](C)(C)CCCCCC[N+](C)(C)C.[Br-].[Br-] [hexamethonium bromide, Hexamethonium Bromide] | elevation in atopic dermatitis scores was suppressed | therapeutic effect (AD scores and ΔAD scores) [3]: relatively high therapeutic effect; improvement in dermatitis scores (mean change from day 0) [4]: Improvement in the dermatitis scores was observed; therapeutic effect (AD scores and ΔAD scores) [5]: relative high therapeutic effect; degree of protrusion of skin pores (replica images) [6]: degree of protrusion of skin pores has subsided to be less goose bump-like
4 | C[N+](C)(C)CCOC(=O)CCC(=O)OCC[N+](C)(C)C [Suxamethonium bromide, suxamethonium chloride] | reduce atopic dermatitis scores | 
5 | Tetramethylammonium Bromide [TAB] | effect of suppressing atopic dermatitis | 
6 | COc1cc2c3cc1Oc1cc(ccc1O)C[C@@H]1c4c(cc(OC)c(O)c4Oc4ccc(cc4)C[C@@H]3N(C)CC2)CC[N+]1(C)C [tubocurarine, Tubocurarine chloride pentahydrate] |  | ratio of degranulated mast cells to all mast cells (mast cells): about 33%
7 | CCCCCC[N+](C)(C)C.[Br-] [Hexyl-TAB, Hexyltrimethylammonium Bromide] | effect of suppressing atopic dermatitis, although slightly weaker than hexamethonium bromide; also recorded: effect of suppressing atopic dermatitis | 
8 | NCCCCCCN [HMDA, Hexamethylenediamine] | An effect of suppression was not found | 
